“Also recorded” adds a separate entry of the source. Counter-ions that a name gives are not always drawn. Like-named read-outs stand apart in the source and are kept apart here.
Key:
[1] = test system: advanced incurable cancers; conditions: cited from earlier work
colon cancer = conditions: cited from earlier work
human colon cancer HT-29 = test: HT-29 human colon cancer xenograft in immunodeficient mice (Example 2); assay type: in vivo, human (xenograft in immunodeficient NIH-1 mice)
Description: (§1) In these four examples, three xenograft lines of human colon cancer were selected to test the effectiveness of various drugs or compounds in treating human colon cancer. These xenograft lines included the following: (1) A moderate-to-poorly differentiated human colon cancer HT-29; (2) poorly differentiated colon cancer lines designated CASE; and (3) SW48. Liebowitz, A. et al., Cancer Res. 36:4562 (1976); and Fogh, J., et al., Human Tumor Cells […], J. Fogh, ed. Plenum Press, New York, pp. 115-159 (1975). The HT-29, CASE and SW48 cell lines were implanted into immunodeficient NIH-1 mice. Each control or drug-treated group included 6 males. Tumor fragments were implanted on day 0. For each implant, 50 mg of wet weight finely minced tumor tissue in 0.5 ml EMEM (Gibco, Grand Island, N.Y.) was injected under the skin over the right dorsal chest region. The drugs were formulated in Tween 80:0.15 NaCl and injected subcutaneously, with the exception of doxorubicin, which was injected intravenously. The treatment started on day 7 and continued 2x/week for 5-6 weeks. Drug doses were based on an established median toxic dose for the schedule applied. Controls were treated with the solvent only. The tumors were measured in three dimensions with a caliper, and tumor volume calculated. The care and treatment of experimental mice was in accordance with institutional guidelines.
In FIG. 2, 9-AC represents 9-amino-20(RS)-camptothecin. The means of tumor volumes in cubic centimeters (cm^3) were plotted against time; S.D. (standard deviation) of the means was less than 15% of the value.

[2] = overall toxicity in tumor-bearing mice (Example 7); assay type: in vivo
Description: Another important feature of the method provided by the present invention relates to the relatively low or no apparent overall toxicity of the camptothecin compounds administered in accordance herein. Overall toxicity can be judged using various criteria. For example, loss of body weight in a subject over 10% of the initially recorded body weight (i.e., before treatment) can be considered as one sign of toxicity. In addition, loss of overall mobility and activity and signs of diarrhea or cystitis in a subject can also be interpreted as evidence of toxicity. In one of the examples which follow, the overall toxicity of the camptothecin compounds was evaluated.
The overall toxicity of the colon tumor-inhibiting camptothecin compounds was next to be evaluated at various dosages. The overall toxicity of 9-amino-20(RS)-camptothecin, 10,11-methylenedioxy-camptothecin and the sodium salt of 10,11-methylenedioxy-camptothecin was evaluated in this example as follows: tumor fragments were implanted under the skin of 5-6 mice in each group beginning on day 0. The mice were injected with one of the compounds beginning on day 7 after visible signs that malignant growth of the implanted tumor had occurred. The injections of the compound were given at predetermined doses of 10 or 12.5 mg/kg of body weight per week for a total of 3-6 weeks. Injections were daily or given two times per week. The body weights of the controls (mice with tumors, injected with placebo) and that of the drug-treated mice were taken two times each week and recorded. Overall toxicity was determined in the following way: loss of body weight after treatment in a subject of more than 10% over the initial body weight of the subject recorded at the beginning of the experiment, was considered a sign of toxicity. The mice were also monitored for their ability to regain the lost body weight. Regaining entirely its lost body weight would therefore be a sign of low toxicity in a subject. In addition, mice were monitored for their overall mobility and activity as well as for signs of diarrhea or cystitis. Mobility/activity was judged on a sliding scale of 1 to 5. That is, a score of 1 indicated good mobility/activity and a score of 5 indicated poor mobility/activity. Diarrhea and cystitis were judged on a plus/minus basis.

CASE cell line = test: CASE human colon cancer xenograft in immunodeficient mice (Examples 3, 4, 6); assay type: in vivo, human (xenograft in immunodeficient NIH-1 mice)
Description: as §1
In Example 3, the CASE cell line was employed.
Example 4 illustrates the results of an experiment in which a second course of treatment followed a first course of treatment. On day 51 after tumor implantation, mice with CASE tumors and minimal disease received the second course of therapy. These mice received a total of 14 injections (doses) of 12.5 mg/kg body weight/dose (FIG. 4).
(§2) Daily injections or 2 injections per week of 10,11-methylenedioxy-20(RS)-camptothecin (total doses 50-70 mg/kg of body weight) stopped the growth of day-7 CASE tumors for a period of 4-6 weeks in 6/6 mice. Five injections of 10,11-methylenedioxy-20(RS)-camptothecin sodium salt (10 mg/kg body weight/dose) stopped the growth of day-7 CASE tumors in 6/6 mice for a period of 4 weeks. Both drugs inhibited at 30 mg/kg body weight (total dose) the growth of metastases of human colon cancer in the liver of immunodeficient mice, and increased the survival of such mice by ~100% (from average of 23 to 46 days).

subcutaneous tumors = assay type: in vivo, mice
[3] = test system: SW48 human colon cancer cell line; test: SW48 human colon cancer xenograft in immunodeficient mice (Example 5); assay type: in vivo, human (xenograft in immunodeficient NIH-1 mice)
Description: as §1
In Example 5, a course of treatment was carried out with the SW48 human colon cancer cell line. This tumor line is extremely unresponsive to treatment. Liebowitz, A., et al., Cancer Res. 36:4562 (1976); and Fogh, J., et al., Human Tumor Cells in Vitro, J. Fogh, ed. Plenum Press, New York, pp. 115-159 (1975).
It should be noted that the first course of treatments of the CASE and SW48 lines, described above, started with well-established tumors, averaging 0.2-0.25 cm^3 in volume. In Example 5, day=35 SW48 tumors (average size 2.5 cm^3), were selected for the first treatment with 9-amino-20(RS)-camptothecin. […]

topoisomerase I = test: topoisomerase I-directed screens; assay type: biochemical
[4] = test system: metastases of human colon cancer in the liver; test: metastases of human colon cancer in the liver of immunodeficient mice (Example 6); assay type: in vivo; conditions: 30 mg/kg body weight (total dose); for increase of survival: from average of 23 days; for average survival: increased from 23 days
Experimental: as §2

[5] = patients with metastases to the liver
[6] = first course, 12.5 mg/kg body weight
[7] = daily treatment, total dose 25 mg/kg
[8] = five injections, 10 mg/kg body weight/dose
[9] = daily or 2 injections per week, total doses 50-70 mg/kg

In the case of CC[C@@](O)(C(=O)O)c1cc2n(c(=O)c1CO)Cc1cc3ccccc3nc1-2 [sodium salt of 20(S)-camptothecin], the “limiting factor (toxicity)” value ([1]; patients with various cancers) is given as “Leukopenia”, the “most prominent non-hematological complication” value ([1]; patients with various cancers) is given as “Hemorrhagic cystitis” and the “gastrointestinal toxicity or sterile hemorrhagic cystitis observed among patients” value ([1]; patients) is given as “observed”. The clinical response ([1]; several patients, some with colorectal cancer, unresponsive to previous treatments) was “temporary relief of the disease” and the “median survival (in words)” value ([1]; several patients, some with colorectal cancer) was “marginal prolongation of median survival”.

For O=c1[nH]cc(F)c(=O)[nH]1 [5-fluorouracil], the “effectiveness in treating colon cancer” value (colon cancer; human, in vivo) is given as “only marginally effective”, the “cases with temporary improvement” value (colon cancer; [5]) is given as no more than 25% and the overall survival (colon cancer; [5]) is given as “not significantly affected”. For the same molecule, the “growth-retardation of tumor implants” value (human colon cancer HT-29; 80 mg/kg of body weight/dose) was “only marginal growth-retardation”.

With CCC1(O)C(=O)OCc2c1cc1n(c2=O)Cc2cc3c(N)cccc3nc2-1 (racemic) [9-amino-20(RS)-camptothecin] the “gastrointestinal toxicity or sterile hemorrhagic cystitis” value ([2]; second course, 50-75 mg/kg) was “no signs”, the “toxicity of second course of treatment” value ([2]; second course, 50-75 mg/kg body weight) was “more toxic than the first” and the “Overall Toxicity” value ([2]; twice/week treatment, total dose 150 mg/kg, 150 mg/kg) was “no overall toxicity”. The “Overall Toxicity” value ([2]; twice/week treatment, total dose 150 mg/kg, listed as 9-Amino-20(RS)-camptothecin, 150 mg/kg) was “none”, the “Overall Toxicity: body weight loss” value ([2]; twice/week treatment, total dose 175 mg/kg (cumulative)) was no more than 20% and the “long-term tumor-free survival (in excess of 7 months)” value (CASE cell line; CASE tumors, after second course) was 7/8. For the same molecule, the “mice with NED or minimal disease” value (CASE cell line; [6]) was 6/6, the “mice with NED” value (CASE cell line; second course, total of 14 doses of 12.5 mg/kg) was 5/6 and the “mice with minimal disease” value (CASE cell line; second course, total of 14 doses of 12.5 mg/kg, of 6 mice) was “the other had minimal disease”. For the same molecule, the “duration of remission (mean+S.D.)” value (human colon cancer HT-29; 10 mg/kg body weight/dose) was 62 ± 20 days, the “mice with no evidence of disease (NED) or minimal disease (tumor volume=0.1 cm^3)” value (human colon cancer HT-29; 10 mg/kg/dose s.c., twice a week, 6 weeks) was 5/6 and the “duration of remission (mean+S.D.)” value (human colon cancer HT-29; 12.5 mg/kg body weight/dose) was 56 ± 15 days. The “mice with NED or minimal disease” value (human colon cancer HT-29; 12.5 mg/kg body weight/dose) was 6/6, the “reduction of tumor volume (average)” value (human colon cancer HT-29; second course, average tumor size 8.3 cm^3, total dose 60 mg/kg) was 45% and the “therapeutic response (in words)” value (subcutaneous tumors; mouse, in vivo) was “completely reducing subcutaneous tumors; also recorded: complete reduction of subcutaneous tumors”. The “long-term tumor-free survival (in excess of 7 months)” value ([3]; after second course, 75 mg/kg total dose) was 6/6, the “mice with NED or minimal disease” value [3, 6] was 6/6 and the “reduction in the volume of the tumors (average)” value ([3]; first treatment of day 35 tumors (average 2.5 cm^3), 6 doses of 12.5 mg/kg, twice a week) was 91%.

For CCC1(O)C(=O)OCc2c1cc1n(c2=O)Cc2cc3cc(N)ccc3nc2-1 (racemic) [10-amino-20(RS)-camptothecin, reference compound], the toxic deaths ([2]; 25 mg/kg body weight) was “toxic deaths of all animals” and the “Overall Toxicity: body weight loss” value ([2]; twice/week treatment, total dose 100 mg/kg) was less than 15%.

For CN(Cc1cnc2nc(N)nc(N)c2n1)c1ccc(C(=O)N[C@@H](CCC(=O)O)C(=O)O)cc1 [methotrexate, reference compound], the “growth-retardation of tumor implants” value (human colon cancer HT-29; 160 mg/kg body weight/dose) was “only marginal growth-retardation”.

For CCC(O)(C(=O)O)c1cc2n(c(=O)c1CO)Cc1cc3cc4c(cc3nc1-2)OCO4 (racemic) [sodium salt of 10,11-methylenedioxy-20(RS)-camptothecin], the toxic deaths ([2]; 62.5 mg/kg body weight) was “toxic deaths of all animals”, the “Overall Toxicity” value [2, 7] was “animal deaths” and the “Overall Toxicity: body weight loss” value [2, 7] was less than 10%. For the same molecule, the “Overall Toxicity” value ([2]; daily treatment, total dose 200 mg/kg) was “animal deaths”, the “Overall Toxicity: body weight loss” value ([2]; twice/week treatment, total dose 50 mg/kg) was 20% and the “Overall Toxicity” value ([2]; twice/week treatment, total dose 62.5 mg/kg) was “animal deaths”. For the same molecule, the “activity in topoisomerase I-directed screens” value (topoisomerase I) was “highly active”, the “mice in which growth of day-7 tumors stopped” value (CASE cell line; [8]) was 6/6 and the “period for which growth of day-7 tumors stopped” value (CASE cell line; [8]) was 4 weeks. The “growth of metastases of human colon cancer in the liver” value [4] was “inhibited”, the increase of survival [4] was ~ 100% and the average survival [4] was 46 days.

In the case of CCC1(O)C(=O)OCc2c1cc1n(c2=O)Cc2cc3cc4c(cc3nc2-1)OCO4 (racemic) [10,11-methylenedioxy-20(RS)-camptothecin], the “decrease of body weight” value ([2]; 70 mg/kg body weight (total dose)) is reported as “less than 10%”, the “Overall Toxicity” value ([2]; twice/week treatment, total dose 100 mg/kg, 100 mg/kg) is reported as “no overall toxicity” and the “Overall Toxicity” value ([2]; twice/week treatment, total dose 100 mg/kg, listed as 10,11-Methylenedioxy-20(RS), 100 mg/kg) is reported as “none”. For the same molecule, the “Overall Toxicity” value ([2]; twice/week treatment, total dose 100 mg/kg, listed as 10,11-methylenedioxy-20(RS) camptothecin, 100 mg/kg) was “no overall toxicity”, the “activity in topoisomerase I-directed screens” value (topoisomerase I) was “highly active” and the “mice in which growth of day-7 tumors stopped” value (CASE cell line; [9]) was 6/6. For the same molecule, the “period for which growth of day-7 tumors stopped” value (CASE cell line; [9]) was 4-6 weeks, the “growth of metastases of human colon cancer in the liver” value [4] was “inhibited” and the increase of survival [4] was ~ 100%. The average survival [4] was 46 days, the “therapeutic response (in words)” value (subcutaneous tumors; 100 mg/kg, two times per week) was “complete reduction of subcutaneous tumors” and the “therapeutic response (in words)” value (subcutaneous tumors; 100 mg/kg, two times per week, listed as 10,11-methylenedioxy-20(RS) camptothecin) was “completely reducing subcutaneous tumors”.

Reference: patent publication US5225404A, “Methods of treating colon tumors with tumor-inhibiting camptothecin compounds” (New York University, priority 1989, dated 1993)
